Legend:
TAF1 (2) = molecular target: T1, TAF1 (2) (Homo sapiens, UniProt P21675); assay: BromoScan / BromoELECT / BromoKdELECT, TAF1 (2); type: binding; conditions: 10 μM; for binding to TAF1 (2): BromoScan/BromoELECT
T1 construct: the second bromodomain of TAF1 (TAF1 (2)); purchased DiscoverX Corporation (contract assay); host or cells: T7 phage in E. coli host derived from BL21
T1 sequence (P21675 1519-1628 limits assumed): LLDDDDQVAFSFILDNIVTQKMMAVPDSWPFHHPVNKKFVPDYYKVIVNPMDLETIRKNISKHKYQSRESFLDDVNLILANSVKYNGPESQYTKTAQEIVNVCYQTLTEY
Protocol: (§1) Bubbles indicate the percentage of inhibition of the binding of the analyzed bromodomains to an acetylated substrate. […] (g) BromoKdELECT assay for CeMMEC1 against TAF1 (2). […] (i) Docking of CeMMEC1 to the second bromodomain of TAF1. 3D model (top panel) and 2D ligand interaction diagram (bottom panel). Red dots in the 3D model indicate water molecules.
(§2) (c) not used (d) KinomeScan profile for CeMMEC1 (10 μM). Bubbles indicate the percentage of inhibition of the binding of the analyzed kinase to an immobilized ligand.

THP1 cells [1] = assay: Cell viability of THP1 cells, combination with (S)-JQ1; type: cell-based, human
REDS3 cells = assay: RFP reporter expression in REDS3 cells (live cell imaging); type: cell-based, human; conditions: for RFP expression in REDS3 cells: single agent
Protocol: Cells were seeded on clear flat bottom 96-well or 384-well plates (Corning) and treated with the indicated compounds for the specified conditions. Live cell imaging pictures were taken with the Operetta High Content Screening System (PerkinElmer), 20× objective and non-confocal mode.
Only RFP-positive nuclei were detected and counted.
The increase of RFP fluorescence, detected with the Operetta High Content Screening System (PerkinElmer), 20× objective and non-confocal mode, was used as read-out.
Briefly, the screening was divided in three parts called respectively 1) primary screening, 2) follow up and 3) validation. During the primary screening REDS3 cells were treated with 10 μM of every compound, and live cell imaging pictures were taken in order to assess their ability to induce RFP expression 24 hours later.

CREBBP = CREBBP (Homo sapiens, UniProt Q92793); assay: BromoScan / BromoELECT / BromoKdELECT, CREBBP; type: binding; conditions: BromoScan/BromoELECT, 10 μM
Protocol: as §1, §2

H23 cells = assay: Cell viability of H23 cells, combination with (S)-JQ1; type: cell-based
TAF1(BD2) [2] = molecular target: T2, TAF1(BD2) (Homo sapiens, UniProt P21675); assay: BROMOscan binding constant determination for TAF1(BD2); conditions: 11-point 3-fold dilution series, read-out: TAF1_BD2 (IC50 μM)
T2 construct: the second bromodomain of TAF1 (TAF1 (2)); purchased DiscoverX Corporation (contract assay); host or cells: T7 phage in E. coli host derived from BL21
T2 sequence (P21675 1519-1628 limits assumed): T1 sequence (P21675 1519-1628 limits assumed)
Protocol: Bromodomain assays: T7 phage strains displaying bromodomains were grown in parallel in 24-well blocks in an E. coli host derived from the BL21 strain. E. coli were grown to log-phase and infected with T7 phage from a frozen stock (multiplicity of infection=0.4) and incubated with shaking at 32° C. until lysis (90-150 minutes). The lysates were centrifuged (5,000×g) and filtered (0.2 μm) to remove cell debris. Streptavidin-coated magnetic beads were treated with biotinylated small molecule or acetylated peptide ligands for 30 minutes at room temperature to generate affinity resins for bromodomain assays. The liganded beads were blocked with excess biotin and washed with blocking buffer (SeaBlock (Pierce), 1% BSA, 0.05% Tween 20, 1 mM DTT) to remove unbound ligand and to reduce non-specific phage binding. […] Test compounds were prepared as 1000× stocks in 100% DMSO. Kds were determined using an 11-point 3-fold compound dilution series with one DMSO control point. […] The compounds were then diluted directly into the assays such that the final concentration of DMSO was 0.09%. All reactions performed in polypropylene 384-well plates. Each was a final volume of 0.02 ml. […] The bromodomain concentration in the eluates was measured by qPCR.
Compound handling: An 11-point 3-fold serial dilution of each test compound was prepared in 100% DMSO at 1000× final test concentration. […] The compounds were then diluted directly into the assays such that the final concentration of DMSO was 0.09%. Most Kds were determined using a compound top concentration=10,000 nM. If the initial Kd determined was <0.169 nM (the lowest concentration tested), the measurement was repeated with a serial dilution starting at a lower top concentration.
Binding constants (Kds) were calculated with a standard dose-response curve using the Hill equation: […]
The Hill Slope was set to −1. Curves were fitted using a non-linear least square fit with the Levenberg-Marquardt algorithm.
The results thus obtained are reported in the following table as IC50 values [μM] for TAF1(BD2).

[3] = test system: bromodomains of BRD4 (1), BRD4 (2), BRD9, CREBBP, EP300 and TAF1 (2); assay: BromoELECT bromodomain panel; type: binding; conditions: 10 μM
Protocol: . The assay was done in duplicate (mean±STD); (b) BromoKdELECT assay for CeMMEC1 against TAF1 (2), BRD9, CREBBP and EP300 bromodomains (11 dilutions, from 10 to 0.017 μM). (c) not used (d) KinomeScan profile for CeMMEC1 (10 μM). Bubbles indicate the percentage of inhibition of the binding of the analyzed kinase to an immobilized ligand. (e) BromoELECT assay for CeMMEC1 and analogs A1, A2, 05, 10, 13, 24, 25, 26, 27, 29, 33 and 39 (10 μM) against BRD4 (1), BRD4 (2), BRD9, CREBBP, EP300 and TAF1 (2). (f, g) Docking poses of analog 30 to TAF1 (green) and BRD4 (magenta). (h) Docking of compound 29 to TAF1, no suitable pose could be identified for BRD4. (i) BromoELECT assay for analog 29 (10 μM) against BRD4 (1), BRD9, CREBBP, EP300 and TAF1 (2).

[4] = test system: c-MYC expression in WT-KBM7; assay: c-MYC expression by RT-PCR in WT-KBM7; type: cell-based, human; conditions: 1, 10 and 20 μM, 24 hours
Protocol: (c) Percentage of c-MYC expression in WT-KBM7 treated with the selected compounds, assessed by RT-PCR. 1, 10 and 20 μM of each compound were used to treat cells for 24 hours; DMSO was used as negative control and (S)-JQ1 as positive control. Three biological replicates were performed (mean±STD).
RNA extraction was performed with TRIzol Reagent (Life Technologies) according to the manufacturer's protocol and Reverse Transcription (RT) was performed using the High Capacity cDNA Reverse Transcription Kit (Applied Biosystems) following the standard protocol.
QPCR was performed using the Power SYBR Green Master mix (Invitrogen) as described in the manufacturer's protocol.
Real-time amplification results were normalized to the endogenous housekeeping genes Actin or GAPDH. The relative quantities were calculated using the comparative CT (Cycle Threshold) Method (ΔΔCT Method).

KBM7 cells = assay: CellTiterGlo viability of control and TAF1 downregulated KBM7 cells; conditions: shRNA TAF1 vs control, 96 hours
THP1 cells [5] = assay: AnnexinV apoptosis assay in THP1 cells; conditions: 72 hours
Protocol: (f) Quantification of AnnexinV positive cells from immunofluorescence images. […] At least 3 biological replicates were performed and more than 1,500 cells were quantified for each point (mean±STD).
Apoptotic cells were detected using the Annexin V-FITC Apoptosis detection kit (Abcam) according to the manufacturer's instruction. Apoptosis quantification was performed with the Harmony software (PerkinElmer) for nuclei and cytoplasm detection and analysis, adapted for the nucleus diameter range and cell shape of the specific cell line used.

THP1 cells [6] = assay: Cell cycle assay in THP1 cells; conditions: 48 hours
Protocol: (e) Quantification of cells in S-phase by staining the nuclei with PI and analyzing DNA content by FACS. […] Three different biological replicates were performed and 30,000 cells were analysed each time (mean±STD).
For cell cycle analysis, cells were fixed with 70% ethanol for 24 hours, washed with PBS/0.1%-Tween and incubated with RNase for 20 minutes. Nuclei were stained with 5 μg/ml PI (propidium iodide, Sigma) for 10 minutes prior to FACS analysis (BD FACSCalibur Flow Cytometer).

TAF1(BD2) [7] = molecular target: T2, TAF1(BD2); assay: BROMOscan primary screen, binding to TAF1(BD2); conditions: 1 μM compound; DMSO = 0%, 30 μM BI2536 = 100% inhibition
Protocol: The binding of these compounds to TAF1 was tested by DiscoverX Corporation (Fremont, Calif., USA) in a primary screen using the BROMOscan assay, which is a ligand binding site-directed competition assay that allows to quantitatively measure interactions between test compounds and bromodomains (see Fabian et al., 2005 for an explanation of the principle of this assay), according to the following protocol:
Bromodomain assays: T7 phage strains displaying bromodomains were grown in parallel in 24-well blocks in an E. coli host derived from the BL21 strain. E. coli were grown to log-phase and infected with T7 phage from a frozen stock (multiplicity of infection=0.4) and incubated with shaking at 32° C. until lysis (90-150 minutes). The lysates were centrifuged (5,000×g) and filtered (0.2 μm) to remove cell debris. Streptavidin-coated magnetic beads were treated with biotinylated small molecule or acetylated peptide ligands for 30 minutes at room temperature to generate affinity resins for bromodomain assays. The liganded beads were blocked with excess biotin and washed with blocking buffer (SeaBlock (Pierce), 1% BSA, 0.05% Tween 20, 1 mM DTT) to remove unbound ligand and to reduce non-specific phage binding. […] Test compounds were prepared as 1000× stocks in 100% DMSO and subsequently diluted 1:25 in monoethylene glycol (MEG). The compounds were then diluted directly into the assays such that the final concentrations of DMSO and MEG were 0.1% and 2.4%, respectively. All reactions were performed in polypropylene 384-well plates in a final volume of 0.02 ml. […] The bromodomain concentration in the eluates was measured by qPCR.

Chain of CREBBP (Q92793 1085-1192 limits assumed): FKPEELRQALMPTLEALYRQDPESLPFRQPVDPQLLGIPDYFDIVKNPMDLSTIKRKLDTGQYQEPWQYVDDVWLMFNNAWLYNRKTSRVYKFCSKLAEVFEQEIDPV

Structure (SMILES): Cn1c(=O)cc(C(=O)Nc2ccc3c(c2)OCCO3)c2ccccc21 [Compound 29]
- selectivity among BRD4 (1), BRD9, CREBBP, EP300 and TAF1 (2) (TAF1 (2); BromoELECT): high selectivity for the TAF1 (2) bromodomain
- binding to TAF1 (2) (TAF1 (2)): retaining TAF1 activity
- synergy with (S)-JQ1 (Bliss independence test) (THP1 cells [1]): the most effective
- RFP expression in REDS3 cells in combination with (S)-JQ1 (REDS3 cells): further boosted RFP expression beyond the increase in single treatments
- RFP expression in REDS3 cells (REDS3 cells): comparable induction of RFP expression in REDS3 cells
- binding to CREBBP (CREBBP): lost all affinity to CREBBP
- synergy with (S)-JQ1 (Bliss independence test) (H23 cells): the most effective
- IC50 (TAF1(BD2) [2]): 3.1 µM

Structure (SMILES): Cn1cc(C(=O)Nc2ccc3c(c2)OCCO3)c(=O)n(C)c1=O [Compound 32]
- RFP expression in REDS3 cells in combination with (S)-JQ1 (REDS3 cells): The same effect was not achieved
- RFP expression in REDS3 cells (REDS3 cells): nor did they induce RFP expression in REDS3 cells
- binding to the tested bromodomain proteins [3]: bound neither of the tested bromodomain proteins

Structure (SMILES): Cc1nnc2ccc(NCCC3=CCCCC3)nn12 [CeMMEC2]
- c-MYC expression [4]: capable of reducing the expression of this oncogene in a dose-dependent manner
- cell viability with TAF1 downregulation (KBM7 cells): synergism
- apoptosis (AnnexinV staining) (THP1 cells [5]): induced apoptosis
- number of cells in S-phase (THP1 cells [6]): clear and dose-dependent decrease of the number of cells in S-phase

Structure (SMILES): Cn1c(=O)cc(C(=O)Nc2ccc3c(c2)OCCO3)c2ccccc21 [Compound 4-1]
- TAF1_BD2 (% inhibition at 1 μM) (TAF1(BD2) [7]): 89%
- IC50 (TAF1(BD2) [2]): 0.25 µM

Structure (SMILES): Cn1cc(C(=O)Nc2ccc3c(c2)OCCO3)c(=O)[nH]c1=O [Compound 35]
- RFP expression in REDS3 cells in combination with (S)-JQ1 (REDS3 cells): The same effect was not achieved
- RFP expression in REDS3 cells (REDS3 cells): nor did they induce RFP expression in REDS3 cells
- binding to the tested bromodomain proteins [3]: bound neither of the tested bromodomain proteins

Structure (SMILES): COc1ccc(C(=O)Nc2cccc3c2ccc(=O)n3C)cc1 [Compound 4-26]
- TAF1_BD2 (% inhibition at 1 μM) (TAF1(BD2) [7]): 82%
- IC50 (TAF1(BD2) [2]): 0.056 µM

Structure (SMILES): Cn1ccc2c(NC(=O)c3ccc4c(c3)OCCO4)cccc2c1=O [Compound 30]
- binding to TAF1 (2) (TAF1 (2)): retaining TAF1 activity
- RFP expression in REDS3 cells in combination with (S)-JQ1 (REDS3 cells): further boosted RFP expression beyond the increase in single treatments
- RFP expression in REDS3 cells (REDS3 cells): comparable induction of RFP expression in REDS3 cells
- binding to CREBBP (CREBBP): lost all affinity to CREBBP
- IC50 (TAF1(BD2) [2]): 4 µM

Structure (SMILES): Cc1sc2c(c1C)C(c1ccc(Cl)cc1)=N[C@@H](CC(=O)OC(C)(C)C)c1nnc(C)n1-2 [(S)-JQ1, reference compound]
- lowest concentration causing full activation of RFP signal (REDS3 cells; 24 hours): 0.5 µM
- confirmed screening hit (RFP induction in REDS3 screen) (REDS3 cells; library screen of 89,355 small molecules, 24 hours): part of this group
- RFP expression in REDS3 cells (REDS3 cells): clear and robust increase of RFP expression
- cell viability with TAF1 downregulation (KBM7 cells): Downregulation of TAF1 decreased cell viability when (S)-JQ1 was used at concentrations not able to affect control cells
- apoptosis (AnnexinV staining) (THP1 cells [5]): induced apoptosis
- number of cells in S-phase (THP1 cells [6]): clear and dose-dependent decrease of the number of cells in S-phase
